# Results: patent US20200079766A1, “MONOCYCLIC OGA INHIBITOR COMPOUNDS” (Janssen Pharmaceutica NV, priority 2016, published 2020)
# Experiments:
# [1] = target: T1, recombinant human Meningioma Expressed Antigen 5 (MGEA5), also referred to as O-GlcNAcase (OGA) (Homo sapiens, UniProt O60502); experiment: OGA biochemical assay: inhibition of FM-GlcNAc hydrolysis, fluorescence; protocol A (10 nM OGA, 1 h) or protocol B (2 nM OGA, 6 h); details: Enzymatic protocol B (2 nM OGA, 6 h); for IC50: read-out: Enzymatic hOGA, pIC50 (converted)
# T1 construct: Full length OGA enzyme was purchased at OriGene (cat # TP322411); purchased OriGene TP322411
# T1 sequence (O60502 1-916): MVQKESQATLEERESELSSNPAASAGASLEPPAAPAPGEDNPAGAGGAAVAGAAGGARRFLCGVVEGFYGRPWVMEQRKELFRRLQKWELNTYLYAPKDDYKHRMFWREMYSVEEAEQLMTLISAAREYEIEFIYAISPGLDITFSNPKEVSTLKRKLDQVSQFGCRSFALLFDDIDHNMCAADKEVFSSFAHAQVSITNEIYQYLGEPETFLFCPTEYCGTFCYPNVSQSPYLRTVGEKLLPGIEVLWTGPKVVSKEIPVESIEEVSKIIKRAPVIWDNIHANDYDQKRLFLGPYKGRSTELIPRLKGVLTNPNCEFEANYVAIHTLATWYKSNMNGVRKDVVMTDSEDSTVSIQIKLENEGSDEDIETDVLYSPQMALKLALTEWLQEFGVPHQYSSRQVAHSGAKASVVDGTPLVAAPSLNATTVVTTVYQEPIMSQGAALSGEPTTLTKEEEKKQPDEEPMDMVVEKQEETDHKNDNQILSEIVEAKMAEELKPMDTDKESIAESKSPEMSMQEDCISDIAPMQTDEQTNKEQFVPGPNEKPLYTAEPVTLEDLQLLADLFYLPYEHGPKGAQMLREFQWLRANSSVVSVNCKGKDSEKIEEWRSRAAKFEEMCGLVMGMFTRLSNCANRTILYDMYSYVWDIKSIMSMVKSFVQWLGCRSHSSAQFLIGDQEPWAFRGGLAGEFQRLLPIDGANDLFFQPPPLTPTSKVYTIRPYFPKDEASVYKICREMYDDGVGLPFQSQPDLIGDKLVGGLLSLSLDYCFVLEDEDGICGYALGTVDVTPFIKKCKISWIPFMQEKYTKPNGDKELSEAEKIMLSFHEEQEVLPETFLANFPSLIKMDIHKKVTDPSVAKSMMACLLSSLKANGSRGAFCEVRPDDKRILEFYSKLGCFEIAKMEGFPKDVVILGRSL
# Outline: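 Full-length human OGA in 200 mM citrate/phosphate pH 7.2 with 0.005% Tween-20, compound pre-incubated 60 min at RT, then 100 uM FM-GlcNAc (final); 10 nM enzyme for 1 h or 2 nM for 6 h at RT. Stopped with pH 11.0 carbonate; fluorescein read at ex 485/em 538 nm. IC50 and Hill coefficient from curve fit.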
# [2] = system: OGA in HEK293 cells inducible for P301L mutant human Tau (isoform 2N4R); experiment: OGA cellular assay: immunocytochemical detection of O-GlcNAcylated proteins (CTD110.6 antibody) after 6 h incubation; type: cell-based; details: for Emax / EC50: Homo sapiens, HEK293, 6 h; for Emax / Cellular Emax (%): maximum = Thiamet G 200 uM; for EC50: read-out: Cellular hOGA, pEC50 (converted)
# Procedure: HEK293 cells inducible for P301L mutant human Tau (isoform 2N4R) were established at Janssen. Thiamet-G was used for both plate validation (high control) and as reference compound (reference EC50 assay validation). OGA inhibition is evaluated through the immunocytochemical (ICC) detection of O-GlcNAcylated proteins by the use of a monoclonal antibody (CTD110.6; Cell Signaling, #9875) detecting O-GlcNAcylated residues as previoulsy described (Dorfmueller et al. 2010 Chemistry & biology, 17:1250). Inhibition of OGA will result in an increase of O-GlcNAcylated protein levels resulting in an increased signal in the experiment. Cell nuclei are stained with Hoechst to give a cell culture quality control and a rough estimate of immediate compounds toxicity, if any. ICC pictures are imaged with a Perkin Elmer Opera Phenix plate microscope and quantified with the provided software Perkin Elmer Harmony 4.1.
# Cells were propagated in DMEM high Glucose (Sigma, # D5796) following standard procedures. 2 days before the cell assay cells are split, counted and seeded in Poly-D-Lysine (PDL) coated 96-wells (Greiner, #655946) plate at a cell density of 12,000 cells per cm^2 (4,000 cells per well) in 100 μl of Assay Medium (Low Glucose medium is used to reduce basal levels of GlcNAcylation) (Park et al. 2014 The Journal of biological chemistry 289:13519). At the day of compound test medium from assay plates was removed and replenished with 90 μl of fresh Assay Medium. 10 μl of compounds at a 10 fold final concentration were added to the wells. Plates were centrifuged shortly before incubation in the cell incubator for 6 hours. DMSO concentration was set to 0.2%. Medium is discarded by applying vacuum. For staining of cells medium was removed and cells washed once with 100 μl D-PBS (Sigma, # D8537). From next step onwards unless other stated assay volume was always 50 μl and incubation was performed without agitation and at room temperature. Cells were fixed in 50 μl of a 4% paraformaldehyde (PFA, Alpha aesar, #043368) PBS solution for 15 minutes at room temperature. […] Before analysis samples were washed 2 times manually for 5 minutes in ICC base buffer.
# Imaging is performed using Perkin Elmer Phenix Opera using a water 20× objective and recording 9 fields per well. Intensity readout at 488 nm is used as a measure of O-GlcNAcylation level of total proteins in wells. To assess potential toxicity of compounds nuclei were counted using the Hoechst staining. IC50-values are calculated using parametric non-linear regression model fitting. As a maximum inhibition Thiamet G at a 200 uM concentration is present on each plate. In addition, a concentration response of Thiamet G is calculated on each plate.
SMILES,Emax [1] [%],IC50 [1] [nM],Emax [2] [%],EC50 [2] [nM],Enzymatic Emax (%) [1] [%],Enzymatic hOGA; pIC50 [1],Cellular hOGA; pEC50 [2],Cellular Emax (%) [2] [%]
CCOc1cc(C[C@H]2CCN(Cc3cnc(NC(C)=O)s3)C2)cc(C)n1 [compound 41],99.6,8.51,90.7,20.9,–,–,–,–
CC(=O)Nc1ncc(CN2CC[C@H](Cc3ncccc3C#N)C2)s1 [compound 45],101,26.9,80.1,219,–,–,–,–
CC(=O)Nc1ncc(CN2CC[C@H](Cc3ccc(C#N)cn3)C2)s1 [compound 46],101,21.9,85.9,47.9,–,–,–,–
CC(=O)Nc1ncc(CN2CC[C@H](Cc3nnc(C)cc3C)C2)s1 [compound 47],96.9,40.7,61.6,288,–,–,–,–
COc1cnc(C[C@H]2CCN(Cc3cnc(NC(C)=O)s3)C2)c(F)c1 [compound 48],100,12,83,66.1,–,–,–,–
CC(=O)Nc1ncc(CN2CC[C@H](Cc3ccc(OC(F)(F)F)cn3)C2)s1 [compound 49],97.9,105,89.6,85.1,–,–,–,–
CC(=O)Nc1ncc(CN2CC[C@H](Cc3ccc(C(F)F)cn3)C2)s1 [compound 50],99.4,77.6,87.4,55,–,–,–,–
CC(=O)Nc1ncc(CN2CC[C@H](Cc3cc(C(F)(F)F)cnc3C)C2)s1 [compound 51],98.3,53.7,93.5,123,–,–,–,–
CC(=O)Nc1ncc(CN2CC[C@H](Cc3cc(C)c(F)cn3)C2)s1 [compound 52],100,14.8,95.4,91.2,–,–,–,–
CC(=O)Nc1ncc(CN2CCC(Cc3cc(C(F)(F)F)ccn3)C2)s1 (stereo not shown) [compound 53],–,–,–,–,99.4,7.05,6.76,85.6
CC(=O)Nc1ncc(CN2CC[C@H](Cc3nc(C)ccc3C(F)(F)F)C2)s1 [compound 54],100,28.8,75.9,234,–,–,–,–
CC(=O)Nc1ncc(CN2CC[C@H](Cc3ccnc(F)c3)C2)s1 [compound 56],101,22.9,90.3,64.6,–,–,–,–
CC(=O)Nc1ncc(CN2CC[C@H](Cc3ncc(C)nc3C)C2)s1 [compound 58],101,3.16,90.6,40.7,–,–,–,–
CC(=O)Nc1ncc(CN2CC[C@H](Cc3cc(C)cnn3)C2)s1 [compound 59],101,25.7,80.3,145,–,–,–,–
CC(=O)Nc1ncc(CN2CCC(Cc3cc(C(F)(F)F)cc(C)n3)C2)s1 (stereo not shown) [compound 60],–,–,–,–,101.3,7.30,7.03,87.4
CC(=O)Nc1ncc(CN2CC[C@H](Cc3ccc(C)nc3)C2)s1 [compound 61],–,–,–,–,101.2,7.71,7.22,96.3

SMILES,Emax [1] [%],IC50 [1] [nM],Emax [2] [%],EC50 [2] [nM],Enzymatic Emax (%) [1] [%],Enzymatic hOGA; pIC50 [1],Cellular hOGA; pEC50 [2],Cellular Emax (%) [2] [%]
CC(=O)Nc1ncc(CN2CC[C@H](Cc3cnc(C)nc3)C2)s1 [compound 62],–,–,–,–,102.4,7.93,7.20,81.8
CC(=O)Nc1ncc(CN2CC[C@H](Cc3ccnc(C)c3)C2)s1 [compound 63],–,–,–,–,101.9,7.90,7.46,90.1
CC(=O)Nc1ncc(CN2CCC(Cc3cnc(C(F)(F)F)cn3)C2)s1 (stereo not shown) [compound 64],–,–,–,–,102.9,7.34,7.04,89.3
COc1cncc(CC2CCN(Cc3cnc(NC(C)=O)s3)C2)n1 (stereo not shown) [compound 66],–,–,–,–,101,8.53,7.43,100.6
COc1nccnc1CC1CCN(Cc2cnc(NC(C)=O)s2)C1 (stereo not shown) [compound 67],–,–,–,–,100.9,7.70,6.92,84.5
CC(=O)Nc1ncc(CN2CC[C@H](Cc3cc(C)c(C)cn3)C2)s1 [compound 69],103,6.17,101,74.1,–,–,–,–
CC(=O)Nc1ncc(CN2CC[C@H](Cc3nccc(C)c3C)C2)s1 [compound 70],102,66.1,97.7,129,–,–,–,–
CC(=O)Nc1ncc(CN2CC[C@H](Cc3ccc(C)nc3C)C2)s1 [compound 71],99.6,12,94.8,36.3,–,–,–,–
CC(=O)Nc1ncc(CN2CC[C@H](Cc3ccnc(C)c3C)C2)s1 [compound 72],102,7.94,109,32.4,–,–,–,–
CC(=O)Nc1ncc(CN2CC[C@H](Cc3cc(C)ncc3C(F)(F)F)C2)s1 [compound 73],–,–,–,–,101.4,7.81,6.95,94
CC(=O)Nc1ncc(CN2CC[C@H](Cc3ccncc3C)C2)s1 [compound 74],–,–,–,–,101,8.01,7.34,115.8
CC(=O)Nc1ncc(CN2CCC(Cc3ncc(F)cc3F)C2)s1 (stereo not shown) [compound 75],–,–,–,–,99.3,7.63,7.11,104.1
CC(=O)Nc1ncc(CN2CC[C@H](Cc3cc(C)nc(C(F)(F)F)c3)C2)s1 [compound 76],–,–,–,–,102.4,7.59,7.56,92.3
CC(=O)Nc1ncc(CN2CCC(Cc3cc(C)nc(C)n3)C2)s1 (stereo not shown) [compound 77],–,–,–,–,101.8,7.91,7.27,91.1
CCc1cc(C[C@H]2CCN(Cc3cnc(NC(C)=O)s3)C2)cc(C)n1.Cl [compound 80],–,–,–,–,101.5,8.24,7.94,90
